Reference: US12427210B2, “Compounds comprising a fibroblast activation protein ligand and use thereof” (priority 2019, dated 2025)
Numbered stars: 1 amine (or outer) side, 2 acyl side, 3 side chain; on linkers, the order of the positions; unused ones are H or OH. Bridge positions count the residues as written; N and C are the ends. Peptide text beside a SMILES is read from it. * marks the point of attachment. X1 = O=C(O)CN1CCN(CC(=O)O)CCN(CC(=O)N2CCN(Cc3cc(C[*:1])cc(C[*:2])c3)CC2)CCN(CC(=O)O)CC1; Hexanoyl = CCCCCC(=O)*

How the values were obtained:
[1] = in vivo; settings: mouse, iv; for clearance: in vivo; for AUC(0-inf) / C0 / half-life / Vd: plasma; for Vd: mouse plasma
[2] = molecular target: mu (MOP) (h) (Homo sapiens, UniProt P35372); test: biochemical; settings: read-out: % Inhibition of Specific Binding
[3] = molecular target: DPP3 (Homo sapiens, UniProt Q9NY33); test: biochemical; settings: read-out: Percentage inhibition (%)
[4] = molecular target: T1, Caspase-6 (Homo sapiens, UniProt P55212); test: biochemical; settings: read-out: Percentage inhibition (%)
T1 sequence (P55212 24-179 limits assumed): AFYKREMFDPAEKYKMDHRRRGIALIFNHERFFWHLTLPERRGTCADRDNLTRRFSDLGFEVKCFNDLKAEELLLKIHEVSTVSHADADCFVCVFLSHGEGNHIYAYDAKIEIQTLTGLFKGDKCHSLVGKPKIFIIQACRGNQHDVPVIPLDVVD
T1 sequence (P55212 194-293 limits assumed): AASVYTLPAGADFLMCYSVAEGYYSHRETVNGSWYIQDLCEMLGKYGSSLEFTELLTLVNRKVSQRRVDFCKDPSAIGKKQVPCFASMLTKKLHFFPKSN

[5] = molecular target: M2 (h) (Homo sapiens, UniProt P08172); test: biochemical; settings: read-out: % Inhibition of Specific Binding
[6] = molecular target: dopamine transporter (h) (Homo sapiens, UniProt Q01959); test: biochemical; settings: read-out: % Inhibition of Specific Binding
[7] = molecular target: 5-HT transporter (h) (Homo sapiens, UniProt P31645); test: biochemical; settings: read-out: % Inhibition of Specific Binding
[8] = molecular target: H2 (h) (Homo sapiens, UniProt P25021); test: biochemical; settings: read-out: % Inhibition of Specific Binding
[9] = molecular target: Caspase-9 (Homo sapiens, UniProt P55211); test: biochemical; settings: read-out: Percentage inhibition (%)
[10] = molecular target: DPP9 (Homo sapiens, UniProt Q86TI2); test: biochemical; settings: read-out: Percentage inhibition (%)
[11] = molecular target: T2, Caspase-7 (Homo sapiens, UniProt P55210); test: biochemical; settings: read-out: Percentage inhibition (%)
T2 sequence (P55210 24-198 limits assumed): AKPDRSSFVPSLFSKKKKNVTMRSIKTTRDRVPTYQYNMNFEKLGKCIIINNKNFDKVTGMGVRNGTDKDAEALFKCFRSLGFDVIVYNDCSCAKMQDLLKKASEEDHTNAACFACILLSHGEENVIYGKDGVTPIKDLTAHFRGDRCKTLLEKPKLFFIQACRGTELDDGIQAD
T2 sequence (P55210 207-303 limits assumed): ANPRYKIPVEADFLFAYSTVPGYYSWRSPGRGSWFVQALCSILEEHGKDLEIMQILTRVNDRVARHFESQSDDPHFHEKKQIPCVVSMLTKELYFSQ

[12] = molecular target: T3, A20 (Homo sapiens, UniProt P21580); test: biochemical; settings: read-out: Percentage inhibition (%)
T3 sequence (P21580 1-790): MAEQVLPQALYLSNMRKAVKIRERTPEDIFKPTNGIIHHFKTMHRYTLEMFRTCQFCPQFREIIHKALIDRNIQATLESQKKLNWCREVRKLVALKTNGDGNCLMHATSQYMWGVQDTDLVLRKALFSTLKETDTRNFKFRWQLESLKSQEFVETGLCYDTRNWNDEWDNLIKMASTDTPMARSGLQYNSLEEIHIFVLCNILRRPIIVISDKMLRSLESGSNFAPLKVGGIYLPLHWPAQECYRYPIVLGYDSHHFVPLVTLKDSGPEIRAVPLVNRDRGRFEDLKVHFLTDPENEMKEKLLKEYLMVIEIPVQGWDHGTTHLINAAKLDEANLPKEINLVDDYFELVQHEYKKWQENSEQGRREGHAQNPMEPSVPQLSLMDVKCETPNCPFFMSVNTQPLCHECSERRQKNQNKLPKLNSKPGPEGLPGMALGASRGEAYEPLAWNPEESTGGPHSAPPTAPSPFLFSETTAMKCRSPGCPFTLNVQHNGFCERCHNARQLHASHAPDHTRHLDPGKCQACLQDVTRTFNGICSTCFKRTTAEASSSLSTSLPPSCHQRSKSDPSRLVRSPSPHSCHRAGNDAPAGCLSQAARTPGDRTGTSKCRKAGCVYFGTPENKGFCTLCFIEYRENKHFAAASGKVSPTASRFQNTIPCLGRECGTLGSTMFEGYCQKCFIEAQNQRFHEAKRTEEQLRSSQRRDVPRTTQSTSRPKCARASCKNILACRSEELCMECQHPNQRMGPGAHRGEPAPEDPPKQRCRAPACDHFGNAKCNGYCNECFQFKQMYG

[13] = molecular target: T4, Renin (Homo sapiens, UniProt P00797); test: biochemical; settings: read-out: Percentage inhibition (%)
T4 sequence (P00797 67-406): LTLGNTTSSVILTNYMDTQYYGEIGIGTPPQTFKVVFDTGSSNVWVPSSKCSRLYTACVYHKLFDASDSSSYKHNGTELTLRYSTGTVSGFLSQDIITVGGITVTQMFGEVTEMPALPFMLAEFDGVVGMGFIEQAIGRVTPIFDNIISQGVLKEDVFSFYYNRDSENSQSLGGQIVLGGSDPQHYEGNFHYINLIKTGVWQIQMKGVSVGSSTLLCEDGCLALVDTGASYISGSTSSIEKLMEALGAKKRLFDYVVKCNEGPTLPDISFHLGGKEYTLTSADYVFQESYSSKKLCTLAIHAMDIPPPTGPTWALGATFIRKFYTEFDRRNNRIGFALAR

DPP9, sequence (Q86TI2 whole entry, species assumed): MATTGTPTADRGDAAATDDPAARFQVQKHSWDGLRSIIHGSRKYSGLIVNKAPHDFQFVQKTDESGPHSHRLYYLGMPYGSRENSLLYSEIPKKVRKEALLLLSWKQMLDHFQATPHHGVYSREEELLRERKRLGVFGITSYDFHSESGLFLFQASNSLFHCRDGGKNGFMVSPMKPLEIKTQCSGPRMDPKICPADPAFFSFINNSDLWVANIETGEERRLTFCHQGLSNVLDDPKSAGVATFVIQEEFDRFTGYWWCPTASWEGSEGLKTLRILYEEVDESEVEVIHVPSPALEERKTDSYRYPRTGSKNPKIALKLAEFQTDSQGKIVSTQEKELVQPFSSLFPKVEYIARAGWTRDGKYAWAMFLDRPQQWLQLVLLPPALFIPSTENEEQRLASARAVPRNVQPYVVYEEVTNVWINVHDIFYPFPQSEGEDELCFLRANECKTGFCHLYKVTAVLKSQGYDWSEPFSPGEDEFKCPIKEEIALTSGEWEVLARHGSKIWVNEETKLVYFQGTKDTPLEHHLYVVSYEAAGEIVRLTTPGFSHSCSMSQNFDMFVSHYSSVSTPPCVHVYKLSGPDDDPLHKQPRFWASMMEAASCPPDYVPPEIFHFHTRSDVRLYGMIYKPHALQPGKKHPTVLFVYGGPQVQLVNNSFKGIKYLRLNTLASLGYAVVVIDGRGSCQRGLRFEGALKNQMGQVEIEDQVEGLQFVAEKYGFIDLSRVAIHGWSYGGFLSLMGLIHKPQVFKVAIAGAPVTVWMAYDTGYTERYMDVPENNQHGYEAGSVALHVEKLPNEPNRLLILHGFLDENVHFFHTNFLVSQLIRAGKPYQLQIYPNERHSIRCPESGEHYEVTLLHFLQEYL
Caspase-9, sequence (P55211 1-315 limits assumed, species assumed): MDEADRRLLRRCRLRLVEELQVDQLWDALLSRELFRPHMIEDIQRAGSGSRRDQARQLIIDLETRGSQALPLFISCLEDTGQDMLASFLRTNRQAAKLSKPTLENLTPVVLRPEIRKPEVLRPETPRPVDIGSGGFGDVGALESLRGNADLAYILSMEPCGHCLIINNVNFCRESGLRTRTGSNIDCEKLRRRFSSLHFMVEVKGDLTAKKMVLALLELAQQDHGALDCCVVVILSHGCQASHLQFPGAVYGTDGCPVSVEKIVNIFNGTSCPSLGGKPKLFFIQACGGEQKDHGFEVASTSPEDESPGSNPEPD
Caspase-9, sequence (P55211 331-416 limits assumed, species assumed): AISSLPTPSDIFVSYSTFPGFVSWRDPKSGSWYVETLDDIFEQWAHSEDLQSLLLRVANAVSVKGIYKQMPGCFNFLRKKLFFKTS
5-HT transporter (h), sequence (P31645 whole entry): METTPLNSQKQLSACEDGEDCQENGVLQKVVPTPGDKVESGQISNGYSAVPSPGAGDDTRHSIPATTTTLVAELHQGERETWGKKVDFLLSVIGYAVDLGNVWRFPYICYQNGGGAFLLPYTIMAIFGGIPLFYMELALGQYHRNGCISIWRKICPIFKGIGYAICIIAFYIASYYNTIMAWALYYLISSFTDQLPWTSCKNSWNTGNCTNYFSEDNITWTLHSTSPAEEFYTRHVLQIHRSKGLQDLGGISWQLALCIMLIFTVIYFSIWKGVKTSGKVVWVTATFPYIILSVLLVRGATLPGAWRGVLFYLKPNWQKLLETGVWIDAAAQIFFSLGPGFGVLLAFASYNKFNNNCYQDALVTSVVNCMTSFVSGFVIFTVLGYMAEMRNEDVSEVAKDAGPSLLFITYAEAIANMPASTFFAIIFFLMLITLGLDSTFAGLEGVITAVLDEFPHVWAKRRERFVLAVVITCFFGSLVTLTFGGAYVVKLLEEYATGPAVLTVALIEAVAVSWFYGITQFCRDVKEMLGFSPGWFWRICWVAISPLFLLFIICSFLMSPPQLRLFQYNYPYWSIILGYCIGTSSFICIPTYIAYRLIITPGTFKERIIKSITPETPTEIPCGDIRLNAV
mu (MOP) (h), sequence (P35372 whole entry): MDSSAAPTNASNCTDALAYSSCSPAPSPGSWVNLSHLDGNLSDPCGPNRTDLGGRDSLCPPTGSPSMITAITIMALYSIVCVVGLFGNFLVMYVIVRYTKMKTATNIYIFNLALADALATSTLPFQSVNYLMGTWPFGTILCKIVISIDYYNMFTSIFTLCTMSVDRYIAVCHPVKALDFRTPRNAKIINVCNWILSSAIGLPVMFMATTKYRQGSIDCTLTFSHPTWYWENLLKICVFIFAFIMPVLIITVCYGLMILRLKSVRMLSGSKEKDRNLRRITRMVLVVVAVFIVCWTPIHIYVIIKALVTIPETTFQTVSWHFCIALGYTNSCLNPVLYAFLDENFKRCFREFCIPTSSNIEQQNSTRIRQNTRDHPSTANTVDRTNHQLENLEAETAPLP
dopamine transporter (h), sequence (Q01959 whole entry): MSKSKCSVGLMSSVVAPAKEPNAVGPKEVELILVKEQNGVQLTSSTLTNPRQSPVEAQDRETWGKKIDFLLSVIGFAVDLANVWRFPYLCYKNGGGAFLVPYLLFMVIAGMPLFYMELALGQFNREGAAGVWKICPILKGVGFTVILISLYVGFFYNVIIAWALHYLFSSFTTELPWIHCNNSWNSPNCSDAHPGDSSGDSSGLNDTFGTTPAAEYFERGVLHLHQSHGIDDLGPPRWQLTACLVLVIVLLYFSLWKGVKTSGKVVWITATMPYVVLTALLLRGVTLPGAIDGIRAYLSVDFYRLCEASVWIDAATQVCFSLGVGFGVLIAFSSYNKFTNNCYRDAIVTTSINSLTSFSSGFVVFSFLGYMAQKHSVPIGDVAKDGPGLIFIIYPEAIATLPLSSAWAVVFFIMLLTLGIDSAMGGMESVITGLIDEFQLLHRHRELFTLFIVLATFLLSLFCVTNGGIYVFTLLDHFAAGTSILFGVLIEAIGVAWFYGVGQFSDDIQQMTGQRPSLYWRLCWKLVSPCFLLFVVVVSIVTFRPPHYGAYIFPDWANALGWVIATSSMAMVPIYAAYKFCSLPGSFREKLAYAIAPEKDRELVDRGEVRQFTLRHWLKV
DPP3, sequence (Q9NY33 whole entry, species assumed): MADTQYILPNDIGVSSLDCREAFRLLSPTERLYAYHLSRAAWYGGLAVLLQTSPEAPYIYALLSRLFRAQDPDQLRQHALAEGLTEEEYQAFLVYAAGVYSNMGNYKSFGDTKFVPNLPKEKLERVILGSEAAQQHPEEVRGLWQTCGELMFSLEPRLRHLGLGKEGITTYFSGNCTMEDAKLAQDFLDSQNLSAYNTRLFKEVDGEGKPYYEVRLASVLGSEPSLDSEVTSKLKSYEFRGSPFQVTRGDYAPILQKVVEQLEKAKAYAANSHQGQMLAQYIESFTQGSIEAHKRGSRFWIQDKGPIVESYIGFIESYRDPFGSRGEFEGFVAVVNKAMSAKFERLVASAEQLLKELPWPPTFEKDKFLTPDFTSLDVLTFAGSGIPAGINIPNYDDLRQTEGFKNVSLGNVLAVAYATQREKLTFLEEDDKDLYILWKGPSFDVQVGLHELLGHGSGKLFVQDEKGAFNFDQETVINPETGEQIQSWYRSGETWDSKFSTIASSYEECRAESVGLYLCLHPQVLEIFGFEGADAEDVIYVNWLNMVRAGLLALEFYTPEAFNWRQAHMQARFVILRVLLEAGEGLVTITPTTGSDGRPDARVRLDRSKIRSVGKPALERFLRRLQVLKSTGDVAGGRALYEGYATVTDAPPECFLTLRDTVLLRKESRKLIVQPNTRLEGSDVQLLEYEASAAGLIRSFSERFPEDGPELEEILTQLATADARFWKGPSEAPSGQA
H2 (h), sequence (P25021 whole entry): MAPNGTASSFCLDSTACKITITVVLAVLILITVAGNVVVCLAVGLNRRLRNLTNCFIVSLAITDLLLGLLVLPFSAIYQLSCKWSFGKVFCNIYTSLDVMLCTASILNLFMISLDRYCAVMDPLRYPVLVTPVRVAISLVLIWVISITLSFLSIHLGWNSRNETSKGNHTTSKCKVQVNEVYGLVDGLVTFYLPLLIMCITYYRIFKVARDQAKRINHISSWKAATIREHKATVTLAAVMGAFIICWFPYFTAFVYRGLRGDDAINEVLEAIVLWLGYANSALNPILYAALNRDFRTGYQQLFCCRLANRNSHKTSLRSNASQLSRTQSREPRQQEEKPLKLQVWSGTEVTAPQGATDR
M2 (h), sequence (P08172 whole entry): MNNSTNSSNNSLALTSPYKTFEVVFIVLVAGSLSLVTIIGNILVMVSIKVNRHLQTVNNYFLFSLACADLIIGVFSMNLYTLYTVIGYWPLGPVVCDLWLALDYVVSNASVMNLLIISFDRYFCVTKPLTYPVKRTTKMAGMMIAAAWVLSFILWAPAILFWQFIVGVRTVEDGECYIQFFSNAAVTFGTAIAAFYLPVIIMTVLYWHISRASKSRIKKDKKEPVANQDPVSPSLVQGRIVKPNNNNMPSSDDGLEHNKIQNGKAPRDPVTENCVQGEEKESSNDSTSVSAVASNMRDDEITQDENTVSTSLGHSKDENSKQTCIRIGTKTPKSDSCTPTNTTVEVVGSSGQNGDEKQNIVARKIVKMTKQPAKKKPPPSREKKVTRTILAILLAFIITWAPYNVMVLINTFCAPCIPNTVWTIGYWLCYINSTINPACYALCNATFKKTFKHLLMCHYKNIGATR

SMILES	inhibition at 10 µM [2]	inhibition at 1 µM [4]	inhibition at 10 µM [4]	inhibition at 10 µM [5]	inhibition at 10 µM [6]	inhibition at 10 µM [7]	inhibition at 10 µM [8]	inhibition at 1 µM [9]	inhibition at 10 µM [9]	inhibition at 1 µM [10]	inhibition at 10 µM [10]	inhibition at 1 µM [11]	inhibition at 10 µM [11]	inhibition at 1 µM [12]	inhibition at 10 µM [12]	inhibition at 1 µM [13]	inhibition at 10 µM [13]	other results
CCCCCC(=O)N[C@H]1CSCc2cc(CSCCNC(=O)CN3CCN(CC(=O)O)CCN(CC(=O)O)CCN(CC(=O)O)CC3)cc(c2)CSC[C@@H](C(=O)O)NC(=O)[C@H](Cc2ccccc2)NC(=O)[C@H](CCC(N)=O)NC(=O)[C@H]([C@@H](C)O)NC(=O)[C@@H]2CCCN2C(=O)[C@@H]2CCCN2C1=O [Compound 3BP-3554, Hex-[Cys(tMeBn(DOTA-AET))-Pro-Pro-Thr-Gln-Phe-Cys]-OH]	-10%	6%	-3%	7%	7%	-8%	-16%	-1%	-2%	-1%	-5%	-1%	-7%	1%	0%	0%	-1%	clearance ([1]; 4 nmol/kg): 8.03 mL/min/kg; clearance ([1]; 40 nmol/kg): 11.8 mL/min/kg; clearance ([1]; 400 nmol/kg): 8.03 mL/min/kg; AUC(0-inf) ([1]; 4 nmol/kg): 0.0083 µM·h; C0 ([1]; 4 nmol/kg): 25.6 nM; half-life ([1]; 4 nmol/kg): 23 min; Vd ([1]; 4 nmol/kg, Vss, intravenous 4 nmol/kg): 0.21 L/kg; Vd ([1]; 4 nmol/kg, Vz, intravenous 4 nmol/kg): 0.26 L/kg; AUC(0-inf) ([1]; 40 nmol/kg): 0.056 µM·h; C0 ([1]; 40 nmol/kg): 177 nM; half-life ([1]; 40 nmol/kg): 59 min; Vd ([1]; 40 nmol/kg, Vss, intravenous 40 nmol/kg): 0.32 L/kg; Vd ([1]; 40 nmol/kg, Vz, intravenous 40 nmol/kg): 1.02 L/kg; AUC(0-inf) ([1]; 400 nmol/kg): 0.961 µM·h; C0 ([1]; 400 nmol/kg): 4970 nM; half-life ([1]; 400 nmol/kg): 40 min; Vd ([1]; 400 nmol/kg, Vss, intravenous 400 nmol/kg): 0.1 L/kg; Vd ([1]; 400 nmol/kg, Vz, intravenous 400 nmol/kg): 0.21 L/kg; inhibition at 1 µM [3]: 2%; inhibition at 10 µM [3]: -1%
CCCCCC(=O)N[C@H]1CSCc2cc(cc(CN3CCN(C(=O)CN4CCN(CC(=O)O)CCN(CC(=O)O)CCN(CC(=O)O)CC4)CC3)c2)CSC[C@@H](C(=O)N[C@@H](CC(=O)O)C(N)=O)NC(=O)[C@H](Cc2ccccc2)NC(=O)[C@H](CCC(N)=O)NC(=O)[C@H]([C@@H](C)O)NC(=O)[C@@H]2CCCN2C(=O)[C@@H]2CCCN2C1=O [Compound 3BP-3407, Hex-[Cys(tMeBn(DOTA-PP))-Pro-Pro-Thr-Gln-Phe-Cys]-Asp-NH2] (Hexanoyl-CPPTQFCD-NH2; linker 1-7 via X1)	2%	1%	-1%	-4%	12%	-3%	-5%	5%	8%	-1%	0%	-3%	-3%	2%	-4%	-1%	3%	
